Series [1] relates to RKO human colon adenocarcinoma cells (RKOp27 subclone, uninduced, proliferating). Description: Alamar Blue cell viability assay, anti-proliferative/cytotoxic activity, RKO p27 uninduced (proliferating). Format: cell-based. The note with it: 72 hours incubation, read-out: −log EC50 [mol/l] RKO p27 uninduced (proliferating) (converted). The procedure: The compounds are dissolved as 10 mM solutions in DMSO and subsequently diluted in semi-logarithmic steps. DMSO dilutions are further diluted 1:100 v:v into Dulbecco's modified Eagle's medium (DMEM) containing 10% fetal calf serum to a final concentration twice as much as the final concentration in the test. RKO subclones are seeded into 96 well flat bottom plates at a density of 4000 cells per well in a volume of 50 μl per well. 24 hours after seeding the 50 μl each of the compound dilutions in DMEM medium are added into each well of the 96 well plate. Each compound dilution is tested as triplicates. Wells containing untreated control cells are filled with 50 μl DMEM medium containing 1% DMSO. The cells are then incubated with the substances for 72 hours at 37° C. in a humidified atmosphere containing 5% carbon dioxide. To determine the viability of the cells, 10 μl of an Alamar Blue solution (Biosource) are added and the fluorescence is measured at an extinction of 544 nm and an emission of 590 nm. For the calculation of the cell viability the emission value from untreated cells is set as 100% viability and the emission rates of treated cells are set in relation to the values of untreated cells. Viabilities are expressed as % values. The Graphpad Prism program is used for the calculation of EC50 values for anti-proliferative/cytotoxic activity out of the obtained dose-response curves.
Each compound dilution is tested as triplicates. Wells containing untreated control cells are filled with 50 μl DMEM medium containing 1% DMSO. The cells are then incubated with the substances for 72 hours at 37° C. in a humidified atmosphere containing 5% carbon dioxide. To determine the viability of the cells, 10 μl of an Alamar Blue solution (Biosource) are added and the fluorescence is measured at an extinction of 544 nm and an emission of 590 nm. For the calculation of the cell viability the emission value from untreated cells is set as 100% viability and the emission rates of treated cells are set in relation to the values of untreated cells. Viabilities are expressed as % values. The Graphpad Prism program (GraphPad Software, Inc) is used for the calculation of EC50 values out of the obtained dose-response curves. Viability is compared of proliferating cells grown in the absence of the inducer Ponasterone A, versus viability of cells arrested by the expression of ectopic p27Kip1 induced by Ponasterone A.
Background: The colour change of resazurin is a common sign of viable cells or microbes.

For the compound `Cc1ccc2[nH]c3c(c2c1)C[C@H]1C(=O)N(C)C(=O)N1[C@@H]3c1cccc(O)c1` (racemic) [Example 4, (3aSR,10RS)-10-(3-Hydroxy-phenyl)-2,6-dimethyl-3a,4,9,10-tetrahydro-2,9,10a-triaza-cyclopenta[b]fluorene-1,3-dione], in series [1], the EC50 is at most 1000 nM.
Consider `CN1C(=O)[C@@H]2Cc3c([nH]c4ccc(Br)cc34)[C@@H](c3cccc(O)c3)N2C1=O` (racemic) [Example 3, (3aSR,10RS)-6-Bromo-10-(3-hydroxy-phenyl)-2-methyl-3a,4,9,10-tetrahydro-2,9,10a-triaza-cyclopenta[b]fluorene-1,3-dione], for which, in series [1], the EC50 was at most 1000 nM.
A word on the melting point: it is the temperature of the solid-liquid transition. `Cc1ccc2c3c([nH]c2c1)[C@@H](c1cccc(O)c1)N1C(=O)N(C)C(=O)[C@@H]1C3` (racemic) [Example 6, (3aSR,10RS)-10-(3-Hydroxy-phenyl)-2,7-dimethyl-3a,4,9,10-tetrahydro-2,9,10a-triaza-cyclopenta[b]fluorene-1,3-dione]: the melting point was in the range of 282 to 285 °C.
The compound `Cc1cccc2[nH]c3c(c12)C[C@H]1C(=O)N(C)C(=O)N1[C@@H]3c1cccc(O)c1` (racemic) [Example 5, (3aSR,10RS)-10-(3-Hydroxy-phenyl)-2,5-dimethyl-3a,4,9,10-tetrahydro-2,9,10a-triaza-cyclopenta[b]fluorene-1,3-dione] had a melting point of 348 to 352 °C. The EC50 in series [1] was at most 1000 nM.
`COc1ccc2[nH]c3c(c2c1)C[C@H]1C(=O)N(C)C(=O)N1[C@@H]3c1cccc(O)c1` (racemic) [Example 7, (3aSR,10RS)-10-(3-Hydroxy-phenyl)-6-methoxy-2-methyl-3a,4,9,10-tetrahydro-2,9,10a-triaza-cyclopenta[b]fluorene-1,3-dione] had a melting point of 172 to 175 °C. Besides, the EC50 in series [1] was at most 1000 nM.
`CN1C(=O)[C@@H]2Cc3c([nH]c4cc(F)ccc34)[C@@H](c3cccc(O)c3)N2C1=O` (racemic) [Example 2, (3aSR,10RS)-7-Fluoro-10-(3-hydroxy-phenyl)-2-methyl-3a,4,9,10-tetrahydro-2,9,10a-triaza-cyclopenta[b]fluorene-1,3-dione] registered a melting point of 279 to 283 °C. In addition, in series [1], the EC50 was at most 1000 nM.
